Results from patent publication US20240279220A1, “INDOLE COMPOUNDS AND METHODS OF USE” (Genzyme Corporation, priority 2021, published 2024).

Columns and labels:
[1] = test system: NBD1/3D; assay: Aggregation analysis using differential static light scattering (DSLS), NBD1 thermal stability; assay type: binding, Human; settings: ΔTagg versus DMSO control; compound at 100 μM
Outline: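 Purified NBD1 at 0.2 mg/ml in S200 buffer (pH 7.6, 2 mM ATP, 5 mM MgCl2, 1% glycerol) was heated with compound at 1 °C/min to 70 °C. Tagg taken from the light-scattering curve inflection point; ΔTagg = compound Tagg minus mean DMSO control Tagg.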

[2] = biological target: T1, CFTR (Homo sapiens, UniProt P13569, DEL508-508); assay: TECC24 recording of CFTR-mediated transepithelial chloride transport in ΔF508 homozygous CF-HBE cells; assay type: cell-based; settings: 10 μM test agent, 48 hours incubation, AUC of forskolin-stimulated IEQ divided by vehicle AUC, primary CF-HBE cells
T1 construct: Primary human bronchial epithelial cells from a ΔF508 homozygous CF donor; host or cells: primary human bronchial epithelial cells (CF-HBE), ΔF508 homozygous donor
T1 sequence (P13569 with tags, fused parts or gaps DEL508-508): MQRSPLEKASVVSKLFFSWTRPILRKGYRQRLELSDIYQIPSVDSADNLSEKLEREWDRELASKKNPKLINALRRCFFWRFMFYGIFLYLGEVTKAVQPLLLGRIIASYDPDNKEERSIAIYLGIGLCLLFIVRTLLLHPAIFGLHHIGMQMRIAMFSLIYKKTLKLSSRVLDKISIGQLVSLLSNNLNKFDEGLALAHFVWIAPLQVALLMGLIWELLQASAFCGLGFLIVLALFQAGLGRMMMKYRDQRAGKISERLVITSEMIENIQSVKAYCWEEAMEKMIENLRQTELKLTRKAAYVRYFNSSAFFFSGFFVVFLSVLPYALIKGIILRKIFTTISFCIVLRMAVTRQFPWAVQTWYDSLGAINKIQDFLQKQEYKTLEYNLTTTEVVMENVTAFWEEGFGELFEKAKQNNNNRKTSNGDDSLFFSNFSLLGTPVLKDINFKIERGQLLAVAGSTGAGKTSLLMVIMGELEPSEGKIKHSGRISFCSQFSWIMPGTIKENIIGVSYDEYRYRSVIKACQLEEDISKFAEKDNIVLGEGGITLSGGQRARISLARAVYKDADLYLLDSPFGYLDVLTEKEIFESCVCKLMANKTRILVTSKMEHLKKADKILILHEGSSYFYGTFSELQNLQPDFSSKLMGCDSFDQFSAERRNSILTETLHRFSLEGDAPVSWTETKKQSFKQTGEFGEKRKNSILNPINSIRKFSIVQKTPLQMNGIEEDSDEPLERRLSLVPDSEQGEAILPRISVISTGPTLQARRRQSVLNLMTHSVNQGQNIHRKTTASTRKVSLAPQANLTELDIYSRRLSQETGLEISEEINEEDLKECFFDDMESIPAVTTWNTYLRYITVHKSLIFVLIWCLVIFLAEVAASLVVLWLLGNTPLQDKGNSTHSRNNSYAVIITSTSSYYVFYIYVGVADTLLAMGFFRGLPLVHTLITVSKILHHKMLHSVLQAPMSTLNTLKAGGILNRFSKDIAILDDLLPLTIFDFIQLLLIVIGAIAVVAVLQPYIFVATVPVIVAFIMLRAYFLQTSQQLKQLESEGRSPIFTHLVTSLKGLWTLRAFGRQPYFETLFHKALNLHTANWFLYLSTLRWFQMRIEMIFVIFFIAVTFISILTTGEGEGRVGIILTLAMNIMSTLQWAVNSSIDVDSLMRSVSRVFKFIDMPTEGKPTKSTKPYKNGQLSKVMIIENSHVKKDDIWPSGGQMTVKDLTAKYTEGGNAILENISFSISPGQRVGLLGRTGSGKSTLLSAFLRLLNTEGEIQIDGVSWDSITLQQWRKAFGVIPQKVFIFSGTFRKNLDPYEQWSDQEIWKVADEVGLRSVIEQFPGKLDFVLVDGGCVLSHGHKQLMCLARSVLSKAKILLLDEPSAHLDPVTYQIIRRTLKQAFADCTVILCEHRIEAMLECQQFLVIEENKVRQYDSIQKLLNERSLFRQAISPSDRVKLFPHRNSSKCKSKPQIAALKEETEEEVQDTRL
Protocol: The effects of a test agent on CFTR-mediated transepithelial chloride transport was measured using TECC24 recording analysis. Test agents were solubilized in DMSO. Solubilized test agents were mixed with incubation medium containing DMEM/F12, Ultroser G (2%; Crescent Chemical, catalog #67042), Hyclone Fetal Clone II (2%; GE Healthcare, catalog #SH30066.02), bovine brain extract (0.25%; Lonza, catalog #CC-4098), insulin (2.5 μg/mL), IL-13 (10 ng/mL), hydrocortisone (20 nM), transferrin (2.5 μg/mL), triiodothyronine (500 nM), ethanolamine (250 nM), epinephrine (1.5 μM), phosphoethanolamine (250 nM), and retinoic acid (10 nM). Primary human bronchial epithelial cells from a ΔF508 homozygous CF donor (CF-HBE cells; from University of North Carolina Cystic Fibrosis Tissue Procurement Center), grown on Transwell HTS 24-well cell culture inserts (Costar, catalog #3378), were exposed to test agents or controls dissolved in incubation medium. The CF-HBE cells were cultured at 36.5° C. for 48 hours before TECC24 recordings were performed in the presence or absence of test agent, a positive control or vehicle (DMSO).
Following incubation, the transwell cell culture inserts containing the test agent or control-treated CF-HBE cells were loaded onto a TECC24 apparatus (TECC v7 or MTECC v2; EP Design) to record the transepithelial voltage (VT) and resistance (TEER) using 4 AgCl electrodes per well configured in current-clamp mode. The apical and basolateral bath solutions both contained (in mM) 140 NaCl, 5 KCl, 2 CaCl2, 1 MgCl2, 10 Hepes, and 10 glucose (adjusted to pH 7.4 with NaOH). To inhibit basal Na+ absorption, the ENaC inhibitor benzamil (10 μM) was added to the bath. Then, the adenylate cyclase activator, forskolin (10 μM), was added to the bath to activate CFTR. The forskolin-stimulated Cl— transport was halted by addition of CFTR inhibitor-172 (20 μM) to the bath at the end of the experiment to confirm specificity. VT and TEER recordings were digitally acquired at routine intervals using TECC or MTECC software (EP Design). VT and TEER were transformed into equivalent transpeithelial Cl— current (IEQ), and the Area Under the Curve (AUC) of the IEQ timecourse between forskolin and CFTR inhibitor-172 addition is generated using Excel (Microsoft). Efficacy is expressed as the ratio of the test agent AUC divided by vehicle AUC. EC50s based on AUC are generated using the non-linear regression log(agonist) vs. response function in Prism software (Graphpad) with HillSlope fixed=1.
If a test agent increased the AUC of the forskolin-stimulated IEQ relative to vehicle in CF-HBE cells, and this increase was inhibited by CFTR inhibitor-172, then the test agent was considered a CFTR corrector.

Row | TECC24 @ 10 μM over DMSO (AUC fold over DMSO) [2] | SMILES | DSLS NBD1/3D Human Stability delta-T (° C.) @ 100 (μM) [1]
1 | A (“A” refers to AUC @10 uM >= 12) | CS(=O)(=O)c1c(Oc2cccc(-c3ccn(Cc4cccc(CCC(=O)O)c4)n3)c2)ccc2[nH]ccc12 [Example 40] | A (A: T ≥ 10° C.)
2 | A (“A” refers to AUC @10 uM >= 12) | CO[C@]1(C)C[C@@](c2cc(F)cc(CCC(=O)O)c2)(c2cnc(-c3cc(Oc4c(F)c(F)c5[nH]ccc5c4S(C)(=O)=O)ccc3F)[nH]2)C1 [Example 74, 3-(3-((1r,3r)-1-(2-(5-((6,7-difluoro-4-(methylsulfonyl)-1H-indol-5-yl)oxy)-2-fluorophenyl)-1H-imidazol-5-yl)-3-methoxy-3-methylcyclobutyl)-5-fluorophenyl)propanoic acid] | A (A: T ≥ 10° C.)
3 | C (“C” refers to AUC @ 10 uM <= 4) | CP(C)(=O)c1c(Oc2ccc(F)c(-c3ncc(C4(c5cc(F)cc(CCC(=O)O)c5)CC(F)(F)C4)[nH]3)c2)c(F)cc2[nH]ccc12 [Example 80, 3-(3-(1-(2-(5-((4-(dimethylphosphoryl)-6-fluoro-1H-indol-5-yl)oxy)-2-fluorophenyl)-1H-imidazol-5-yl)-3,3-difluorocyclobutyl)-5-fluorophenyl)propanoic acid] | A (A: T ≥ 10° C.)
4 | C (“C” refers to AUC @ 10 uM <= 4) | COC(=O)CCc1cccc(C(O)c2cnc(-c3cccc(Oc4c(F)cc5[nH]ccc5c4-c4nccs4)c3)[nH]2)c1 (centres unmarked) [Example 86, Methyl 3-(3-((2-(3-((6-fluoro-4-(thiazol-2-yl)-1H-indol-5-yl)oxy)phenyl)-1H-imidazol-5-yl)(hydroxy)methyl)phenyl)propanoate] | C (C: ≤5° C.)
5 | C (“C” refers to AUC @ 10 uM <= 4) | CP(C)(=O)c1c(Oc2cccc(-c3nc(C(O)c4cccc(CCC(=O)O)c4)cs3)c2)c(F)cc2[nH]ccc12 (centres unmarked) [Example 97, 3-(3-((2-(3-((4-(Dimethylphosphoryl)-6-fluoro-1H-indol-5-yl)oxy)phenyl)thiazol-4-yl)(hydroxy)methyl)phenyl)propanoic acid] | B (B: 5-10° C.)
6 | C (“C” refers to AUC @ 10 uM <= 4) | Cc1c(Oc2ccc(F)c(-c3ncc(Cc4cccc(CCC(=O)O)c4F)[nH]3)c2)c(F)cc2[nH]ccc12 [Example 119, 3-(2-fluoro-3-((2-(2-fluoro-5-((6-fluoro-4-methyl-1H-indol-5-yl)oxy)phenyl)-1H-imidazol-5-yl)methyl)phenyl)propanoic acid] | B (B: 5-10° C.)
7 | A (“A” refers to AUC @10 uM >= 12) | O=C(O)CCc1cccc(Cc2cnc(-c3cc(Oc4c(F)c(F)c5[nH]ccc5c4F)ccc3F)[nH]2)c1F [Example 121, 3-(2-fluoro-3-((2-(2-fluoro-5-((4,6,7-trifluoro-1H-indol-5-yl)oxy)phenyl)-1H-imidazol-5-yl)methyl)phenyl)propanoic acid] | B (B: 5-10° C.)
8 | A (“A” refers to AUC @10 uM >= 12) | O=C(O)CCc1cccc(Cc2cnc(-c3cc(Oc4c(F)cc5[nH]ccc5c4CC4CCCS4(=O)=O)ccc3F)[nH]2)c1F (centres unmarked) [Example 125, 3-(3-((2-(5-((4-((1,1-dioxidotetrahydrothiophen-2-yl)methyl)-6-fluoro-1H-indol-5-yl)oxy)-2-fluorophenyl)-1H-imidazol-5-yl)methyl)-2-fluorophenyl)propanoic acid] | A (A: T ≥ 10° C.)
9 | C (“C” refers to AUC @ 10 uM <= 4) | CNC(=O)c1c(Oc2ccc(F)c(-c3ncc(Cc4cccc(CCC(=O)O)c4)[nH]3)c2)c(F)cc2[nH]ccc12 [Example 140, 3-(3-((2-(2-Fluoro-5-((6-fluoro-4-(methylcarbamoyl)-1H-indol-5-yl)oxy)phenyl)-1H-imidazol-5-yl)methyl)phenyl)propanoic acid] | B (B: 5-10° C.)

Row | SMILES | TECC24 @ 10 μM over DMSO (AUC fold over DMSO) [2] | DSLS NBD1/3D Human Stability delta-T (° C.) @ 100 (μM) [1]
10 | CS(=O)(=O)c1c(Oc2ccc(F)c(-c3ncc(C4(c5cccc(CCC(=O)O)c5)CCOC4)[nH]3)c2)c(F)cc2[nH]ccc12 (centres unmarked) [Example 45, 3-(3-(3-(2-(2-Fluoro-5-((6-fluoro-4-(methylsulfonyl)-1H-indol-5-yl)oxy)phenyl)-1H-imidazol-5-yl)tetrahydrofuran-3-yl)phenyl)propanoic acid] | B (“B” refers to AUC @10 uM between 4-12) | A (A: T ≥ 10° C.)
11 | CC(C#N)(c1cccc(CCC(=O)O)c1)c1c[nH]c(-c2cc(Oc3c(F)cc4[nH]ccc4c3CC(F)(F)F)ccc2F)n1 (centres unmarked) [Example 52, 3-(3-(1-cyano-1-(2-(2-fluoro-5-((6-fluoro-4-(2,2,2-trifluoroethyl)-1H-indol-5-yl)oxy)phenyl)-1H-imidazol-4-yl)ethyl)phenyl)propanoic acid] | B (“B” refers to AUC @10 uM between 4-12) | B (B: 5-10° C.)
12 | O=C(O)CCc1cccc(Cc2c[nH]c(-c3cc(Oc4c(F)cc5[nH]ccc5c4F)ccc3F)n2)c1 [Example 118, 3-(3-((2-(5-((4,6-difluoro-1H-indol-5-yl)oxy)-2-fluorophenyl)-1H-imidazol-4-yl)methyl)phenyl)propanoic acid] | B (“B” refers to AUC @10 uM between 4-12) | B (B: 5-10° C.)
13 | O=C(O)CCc1cccc(Cc2cnc(-c3cc(Oc4c(F)c(F)c5[nH]ccc5c4F)ccc3F)[nH]2)c1 [Example 123, 3-(3-((2-(2-fluoro-5-((4,6,7-trifluoro-1H-indol-5-yl)oxy)phenyl)-1H-imidazol-5-yl)methyl)phenyl)propanoic acid] | B (“B” refers to AUC @10 uM between 4-12) | B (B: 5-10° C.)
14 | O=C(O)CCc1cc(F)cc(Cc2cnc(-c3cc(Oc4c(F)cc5[nH]ccc5c4F)ccc3F)[nH]2)c1F [Example 124, 3-(3-((2-(5-((4,6-difluoro-1H-indol-5-yl)oxy)-2-fluorophenyl)-1H-imidazol-5-yl)methyl)-2,5-difluorophenyl)propanoic acid] | B (“B” refers to AUC @10 uM between 4-12) | B (B: 5-10° C.)
15 | CS(=O)(=O)CCc1c(Oc2ccc(F)c(-c3ncc(Cc4cccc(CCC(=O)O)c4F)[nH]3)c2)c(F)cc2[nH]ccc12 [Example 126, 3-(2-fluoro-3-((2-(2-fluoro-5-((6-fluoro-4-(2-(methylsulfonyl)ethyl)-1H-indol-5-yl)oxy)phenyl)-1H-imidazol-5-yl)methyl)phenyl)propanoic acid] | B (“B” refers to AUC @10 uM between 4-12) | A (A: T ≥ 10° C.)
16 | CCC(CC)(c1cccc(CCC(=O)O)c1)c1cnc(-c2cc(Oc3c(F)cc4[nH]ccc4c3C)ccc2F)[nH]1 [Example 159, 3-(3-(3-(2-(2-fluoro-5-((6-fluoro-4-methyl-1H-indol-5-yl)oxy)phenyl)-1H-imidazol-5-yl)pentan-3-yl)phenyl)propanoic acid] | B (“B” refers to AUC @10 uM between 4-12) | B (B: 5-10° C.)
